Measured values published in US20240287148A1, “ENGINEERED BIOMOLECULES FOR NUTRIENT REPROGRAMMING” (CORNELL UNIVERSITY, priority 2021, published 2024).
Where a SMILES comes first, the peptide text is derived from it. The star is where a group is joined. Cbz = O=C(OCc1ccccc1)*; CH2F = FC*

Legend:
ATF4 = ATF4 expression in MEF cells (western blotting, RT-qPCR of Atf4); format: cell-based, mouse; details: for ATF4 induction in cystine-starved cells: cystine deprivation
Description: For cystine and methionine deprivation, the experiment was carried out by incubating cells in DMEM, high glucose, no glutamine, no methionine, no cystine (Thermo Fisher: 21013024) with 10% dialyzed FBS (Sigma Aldrich: F0392). For leucine, histidine, and arginine deprivation, the experiment was carried out by incubating cells in DMEM, high glucose, no arginine, no histidine, no leucine, respectively, (custom prepared by Gibco/Invitrogen) with 10% dialyzed FBS (Sigma Aldrich: F0392). For full amino acid starvation, the experiment was carried out by incubating cells in HBSS buffer (Lonza) with 10% dialyzed FBS (Sigma Aldrich: F0392). Samples were collected at indicated experimental time points.
Following experimental conditions, total RNA was isolated by TRIzol reagent (Invitrogen) and reverse transcription was performed using High-Capacity cDNA Reverse Transcription Kit (Invitrogen). Real-time PCR analysis was conducted using Power SYBR Green PCR Master Mix (Applied Biosystems) and data was generated using a LightCycler 480 Real-Time PCR System (Roche Applied Science). qPCR oligo sequences are listed in Table 4.
(§1) Cells were washed with PBS (Gibco) and then lysed on ice using cell lysis buffer (50 mM Tris [pH7.5], 150 mM NaCl, 1 mM EDTA, 1% Triton X-100, 2 U/ml DNase and protease inhibitor cocktail tablet). The lysates were incubated on ice for 30 min and spun down at 10,000 rpm for 3 mins to collect supernatant. Collected supernatant was measured by protein assay (Bio-Rad: 500-0112) to quantify the protein concentration. Equal amounts of proteins across samples were mixed with SDS-PAGE sample buffer (50 mM Tris [pH6.8], 100 mM dithiothreitol, 2% SDS, 0.1% bromophenol blue, 10% glycerol) and heated for 9 mins at 95° C. Denatured proteins were separated on SDS-PAGE and transferred to PVDF membranes (Fisher). Membranes were blocked in TBS containing 5% non-fat milk and 0.1% Tween-20 for 1 hr. Phospho-proteins were blocked in TBS containing 5% BSA and 0.1% Tween-20 for 1 hr. Blocking was followed by incubation with primary antibodies overnight at 4° C. Membranes were washed using TBST followed by subsequent incubation using horseradish peroxidase-coupled secondary antibodies at room temperature for 1 hr. Immunoblots were washed again using TBST and visualized using enhanced chemiluminescence (ECL-Plus, GE Healthcare).

MEF cells [1] = test: Intracellular cysteine and cystine measurement in MEF cells (HPLC); format: cell-based, mouse
Description: Cells were grown on 100 mm dishes until 80-90% confluent. Cells were lysed on ice in lysis buffer (50 mM Tris [pH7.5], 150 mM NaCl, 1 mM EDTA, 1% Triton X-100, 2 U/ml DNase and protease inhibitor cocktail tablet), followed by centrifugation at 10,000 rpm for 8 min at 4° C. The supernatant was collected and 100 μL of sample was mixed with 10 μL TCEP (50 mM in borate buffer [pH 7.4]) (Sigma Aldrich) in a vial and incubated at 25° C. for 10 min.
90 μL of a solution containing 1% TCA and 1 mM EDTA was then added. The total solution was centrifuged for 10 min at 10,000 g at 4° C. 100 μL of the obtained supernatant, 20 μL of 10 mM CNBF solution (4-chloro-3,5-dinitrobenzotrifluoride [Sigma Aldrich: 197017]), 20 μL of methanol, and 50 μL of borate buffer (0.2 M [pH 8.0])) were mixed and incubated at 25° C. for 20 min. Derivatization was terminated with 10 μL of 2M HCl followed by HPLC analysis (see below).
Cells were grown on 100 mm dishes until 80-90% confluent. Cells were lysed on ice in lysis buffer (50 mM Tris [pH7.5], 150 mM NaCl, 1 mM EDTA, 1% Triton X-100, 2 U/ml DNase and protease inhibitor cocktail tablet). 100 μL of sample was mixed with 100 μL of 6%5-Sulfosalicylic Acid Dyhydrate solution (Sigma: S3147), followed by centrifugation at 3,000 g for 15 min at 4° C. The supernatant was collected and 25 μL of freshly made derivatizing solution was added. Samples sat at room temperature for 20 mins, followed by rotary evaporation. Dried material was dissolved in 150 μL of phase A solution followed by HPLC analysis (see below).
All resulting solutions for cysteine, glutathione, and cystine were filtered through a 0.22 μm filter membrane (Millipore Corporation, Belfast, MA, USA) and injected into a chromatographic system. High performance liquid chromatography (HPLC) was performed using a LC-20AT pump with a SPD-20AV UV-vis detector monitored at 270 and 220 nm (Shimadzu, Japan) equip with an Ultra Aqueous C18 column (100 Å, 5 μm, 250 mm×4.6 mm; Restek, USA) at a flow rate of 1 mL/min with a mobile phase containing 0.1% trifluoroacetic acid (TFA) in H2O or acetonitrile. Values were normalized to protein concentration by Bradford assay.

Atf4 promoter = test: Atf4 promoter-driven Fluc reporter assay in MEF cells; format: cell-based, mouse; details: BafilomycinA 50 nM 8 hrs with or without cystine deprivation
Description: (§2) Firefly luciferase reporters were co-transfected with a Renilla reporter plasmid into MEF cells or CTNS knockdown cells for 4 hrs. Transfected cells were treated with amino acid starvation and/or compound treatment at indicated timepoints. Firefly and Renilla luciferase activities were measured using Dual-Luciferase Reporter Assay System (Promega). Relative values of firefly luciferase activities were normalized to Renilla luciferase control.

NRF2 = test: ARE-driven Fluc reporter assay (NRF2 activity) in MEF cells; format: cell-based, mouse; details: cystine starvation 8 hr, BafilomycinA 50 nM or ConcanamycinA 100 nM
Description: as §2

MEF cells [2] = test: Cell viability assay (ferroptosis) in MEF cells; format: cell-based, mouse; details: for cell death under cystine restriction (cell viability): Necrostatin 5 μM, Ferrostatin 1 μM
Description: Cells were seeded into 96-well plates at 3,000 cells per well. After 16 hr, cells were subject to conditions of the indicated experiments. Cells were incubated for 24 hr in their experimental conditions and cell viability was measured using the CellTiter-Blue viability assay (Promega) following the manufacturer's instructions. Relative cell viability in the presence of starvation and/or compounds was normalized to the vehicle-treated controls after background subtraction.

MEF cells [3] = test: Lipid peroxidation measurement (C11-BODIPY, flow cytometry) in MEF cells; format: cell-based, mouse; details: for lipid oxidation in cystine-starved cells (C11-BODIPY): cystine deprivation 18 hrs, BafA1 50 nM or ConA
Description: Cells were plated in 6-well dishes and followed by indicated treatments. After treatment, cells were incubated with fresh medium containing 2 μM BODIPY 581/591 C11 dye (Invitrogen: D3861) for 15 min. Cells were next collected and washed twice with ice-cold PBS followed by fluorescence-activated cell sorting (FACS) analysis using Thermo Fisher Attune NxT. Fluorescence captured during analysis was gated and plotted using FCS Express 7.

MEF cells [4] = test: Cell fractionation and western blotting of MEF cells transfected with CysRx; format: cell-based, mouse; details: BafilomycinA 50 nM for 12 hrs
Description: as §1
MEF cells were grown in four 15 cm dishes until 80% confluent (˜3×10^8 cells) followed by washing twice with ice-cold PBS. […]

UMRC6 tumors = test: CysRx treatment of xenografted UMRC6 tumors in mice (tumor growth); format: in vivo, mouse; details: IKE 10 mg/kg intraperitoneal every other day, 25 days
Description: (§3) Previously established UMRC6 tumors were immediately excised from CO2 euthanized mice and minced using a surgical 10 blade. Approximately […] portions of tumor were bilaterally implanted into 6-8-week-old NSG mice. Animals were monitored for tumor growth and randomized into treatment groups when tumors reached 150-200 mm^3 in size. IKE/vehicle treated animals received intraperitoneal injections every other day (10 mg/kg). CysRx-TT3 treatment was conducted via weekly intratumoral (IT) injections (100 μL) for three weeks. Tumors for IT injections were demarcated into four quadrants and an equal volume (25 μL) of CysRx-TT3 was injected into each quadrant. HiBit-TT3 was injected into the other flank as control. Mice were monitored for tumor growth three times per week using digital calipers. Health and body condition were also monitored concurrently. Animals were sacrificed by CO2 euthanasia (3.5 L/min) one week after final administration or when the body condition started to deteriorate. Tumors were excised from the flank using a surgical 10 blade, weighed and either flash frozen or fixed in 4% PFA.
Magnetic resonance imaging (MRI) of mice was conducted using a 1T M3 compact MRI from Aspect Imaging Ltd. Mice were anesthetized using 2.5% isoflurane and placed onto the specimen arm, coil was then placed around the subject and fixed in place. […]

[5] = Body weight of tumor-bearing mice; format: in vivo, mouse; details: mice with UMRC6 tumors; IKE 10 mg/kg/2d intraperitoneal; CysRx-TT3 intratumoral
Description: as §3

[6] = BafilomycinA 50 nM for 12 hrs, normalized to protein
[7] = MEF cells, cystine deprivation 24 hrs, BafilomycinA 50 nM or ConcanamycinA 100 nM
[8] = MEF cells, 24 hrs cystine deprivation, Z-VAD 20 μM

## CO/C1=C\C(C)=C\[C@@H](C)[C@@H](O)[C@@H](C)C/C(C)=C/C=C/[C@H](OC)[C@@H]([C@@H](C)[C@@H](O)[C@H](C)[C@@]2(O)C[C@@H](O)[C@H](C)[C@@H](C(C)C)O2)OC1=O [BafA1, bafilomycin A1]
ATF4; MEF cells, BafilomycinA 50 nM 8 hrs, ConcanamycinA 100 nM 12 hrs
  ATF4 induction in cystine-starved cells: greatly potentiated
MEF cells [1]; [6]
  cysteine level: increase
  cystine level: decrease
MEF cells [1]; cystine deprivation, BafilomycinA 50 nM 12 hrs
  cytosolic cysteine level in cystine-starved cells: partially restored
Atf4 promoter
  Atf4 promoter-driven Fluc activity (normalized to Renilla): transcriptional upregulation
NRF2
  NRF2 activation (ARE Fluc reporter): prevented
MEF cells [2]; [7]
  ferroptosis in cystine-starved cells (cell viability): prevented
MEF cells [3]
  lipid oxidation in cystine-starved cells (C11-BODIPY): significantly reduced
MEF cells [4]
  CysRx level (western blotting): CysRx accumulation

## O=C(O)c1cc(/N=N/c2ccc(S(=O)(=O)Nc3ccccn3)cc2)ccc1O [sulfasalazine]
MEF cells [2]; MEF cells with CTNS knockdown, Erastin 20 μM, Sulfsalazine 200 μM
  susceptibility of cells lacking cystinosin (cell viability): highly susceptible
MEF cells [2]; MEF cells, 24 hrs, Erastin 20 μM, Sulfsalazine 200 μM
  ferroptosis (cell viability): induced

## O=C(COc1ccc(Cl)cc1)NC1CCC(NC(=O)COc2ccc(Cl)cc2)CC1 (stereo not drawn) [ISRIB]
ATF4; eIF2a(S/S) and eIF2a(A/A) MEF cells, 8 hrs amino acid starvation, ISRIB 100 nM
  cystine shortage-induced ATF4 upregulation (western blotting): insensitive

## COC(=O)C[C@H](NC(=O)[C@H](C)NC(=O)[C@@H](NC(=O)OCc1ccccc1)C(C)C)C(=O)CF [Z-VAD] (Cbz-Val-Ala-Asp(OMe)-CH2F)
MEF cells [2]; [8]
  cell death under cystine restriction (cell viability): not
MEF cells [2]; MEF cells, 24 hrs full amino acid starvation, Z-VAD 20 μM
  reduced cell viability under full amino acid starvation: rescued

## CC(C)Oc1ccc(C(=O)Cn2ccnc2)cc1-n1c(CN2CCN(C(=O)COc3ccc(Cl)cc3)CC2)nc2ccccc2c1=O [IKE, imidazole ketone erastin]
UMRC6 tumors
  tumor growth: suppressed
[5]
  body weight: weight loss

## O=C1O[C@H]([C@@H](O)CO)C(O)=C1O [ascorbic acid]
ATF4; MEF cells, 8 hrs cystine starvation, Ascorbic Acid 20 μM
  ATF4 induction upon cystine starvation: little effects
ATF4; MEF cells, HCA 10 mM, Ascorbic Acid 20 μM
  ATF4 expression induced by homocysteic acid (HCA): attenuated

## CCOC(=O)c1ccc(NC2CCCCC2)c(N)c1 [ferrostatin-1]
MEF cells [2]; [8]
  cell death under cystine restriction (cell viability): prevented

## N[C@@H](CCS(=O)(=O)O)C(=O)O [homocysteic acid]
ATF4; MEF cells, HCA 10 mM
  ATF4 expression: induced

## CCCCS(=N)(=O)CCC(N)C(=O)O (stereo not drawn) [BSO, buthionine sulfoximine]
ATF4; MEF cells, BSO 10 μM, 8 hrs
  ATF4 expression: induced

## CN1C(=O)C(Cc2c[nH]c3ccccc23)NC1=S (stereo not drawn) [necrostatin, necrostatin-1]
MEF cells [2]; [8]
  cell death under cystine restriction (cell viability): not

## CC(C)n1cnc2c(NCCc3ccc(O)cc3)nc(-c3csc4ccccc34)nc21 [SR1]
ATF4; MEF cells, SR1 200 nM or Indirubin 2 μM
  ATF4 induction in cystine-starved cells: significantly reduced
MEF cells [2]; MEF cells, cystine deprivation 24 hrs, SR1 200 nM or Indirubin 2 μM
  ferroptosis of cystine-starved cells (cell viability): promoted

## NCCS [cysteamine]
ATF4; MEF cells, Cysteamine 0.5 mM, 12 hrs
  ATF4 induction under the cystine rich condition: pronounced ATF4 induction
MEF cells [1]; Cysteamine 0.5 mM, 12 hrs
  cysteine in the cytosol: increase
  lysosomal cystine level: readily depleted
MEF cells [2]; MEF cells with CTNS knockdown, 24 hrs cystine deprivation, Cysteamine 0.5 mM
  ferroptotic cell death of cells lacking cystinosin: rescued
MEF cells [2]; MEF cells, cystine deprivation, Cysteamine 0.5 mM for 24 hrs
  ferroptosis in cystine-starved cells (cell viability): rescued
MEF cells [3]; cystine deprivation, Cysteamine 0.5 mM for 18 hrs
  lipid oxidation in cystine-starved cells: eliminated

## C/C=C/[C@H]1O[C@@](O)([C@@H](C)[C@H](O)[C@H](C)[C@H]2OC(=O)/C(OC)=C/C(C)=C/[C@@H](C)[C@@H](O)[C@@H](CC)[C@@H](O)[C@H](C)C/C(C)=C/C=C/[C@@H]2OC)C[C@@H](O[C@H]2C[C@@H](O)[C@H](OC(N)=O)[C@@H](C)O2)[C@@H]1C [ConA, concanamycin A]
NRF2
  NRF2 activation (ARE Fluc reporter): prevented
MEF cells [2]; [7]
  ferroptosis in cystine-starved cells (cell viability): prevented
MEF cells [3]
  lipid oxidation in cystine-starved cells (C11-BODIPY): significantly reduced

## C[C@@H]1C[C@@H]([C@H](O)CC2CC(=O)NC(=O)C2)C(=O)[C@@H](C)C1 [cycloheximide]
MEF cells [1]; 12 hrs amino acid starvation, Cycloheximide 50 μM
  intracellular cyst(e)ine levels: largely restored
MEF cells [2]; MEF cells, 24 hrs Erastin 20 μM or Sulfsalazine 200 μM, Cycloheximide 50 μM
  ferroptosis induced by erastin and sulfasalazine (cell viability): partially rescued
MEF cells [2]; MEF cells, 24 hrs cystine deprivation, Cycloheximide 50 μM
  increased ferroptosis susceptibility under cystine deprivation (cell viability, lipid ROS): prevented
